Data published in paper PMC13086964, “USP7 deubiquitinase stabilizes FAN1 to support DNA crosslink repair and suppress CAG repeat expansion” (Nature Communications, 2026).

Key:
Assay type in all cases: cell-based, human
[1] = test system: RPE-1 p53 KO cells; assay: clonogenic survival assay, RPE-1 p53 KO; settings: 24 h, n = 3
Method: Fig. 4 USP7 facilitates FAN1 localization and function during ICL repair. A QIBC analysis of chromatin-bound GFP-FAN1 foci in U2OS^eGFP-FAN1 cells transfected with either non-targeting (Ctrl), USP7 or FANCD2 siRNA oligos. 24 h later, cells were either mock-treated (–) or treated (+) with MMC (150 ng/ml) for 24 h. Color-coded scatterplots (from grey to green) indicate the number of GFP-FAN1 foci per nucleus from one biological replicate. Mean (solid line) and standard deviation (SD) from the mean (dashed lines) are indicated. Representative images are shown (bottom). Scale bar: 10 μm. This experiment was repeated three times. B QIBC analysis of endogenous FANCD2 foci in U2OS^eGFP-FAN1 cells transfected with either non-targeting (Ctrl) or the indicated siRNA oligos. 24 h later, cells were either mock-treated (−) or treated (+) with MMC (150 ng/ml) for 24 h. […] 24 h later, cells were either mock-treated (−) or treated (+) with MMC (1 μg/ml) for 48 h and whole-cell lysates were analysed by immunoblotting. […] Relative FAN1, cleaved PARP-1 or cleaved Caspase-3 protein levels were determined by quantification of the respective band intensity (normalized to GAPDH) with the ImageJ software. […]
HeLa and RPE-1 p53 KO cells were transfected with the indicated siRNA. […] For analysis, plates were scanned and analysed with the ImageJ Plugin ColonyArea using the parameter “intensity percent”.

[2] = test system: HeLa parental and FAN1 KO cells; assay: apoptosis: PARP-1 and caspase-3 cleavage, HeLa; settings: 48 h
Method: (§1) Fig. 4 USP7 facilitates FAN1 localization and function during ICL repair. A QIBC analysis of chromatin-bound GFP-FAN1 foci in U2OS^eGFP-FAN1 cells transfected with either non-targeting (Ctrl), USP7 or FANCD2 siRNA oligos. 24 h later, cells were either mock-treated (–) or treated (+) with MMC (150 ng/ml) for 24 h. Color-coded scatterplots (from grey to green) indicate the number of GFP-FAN1 foci per nucleus from one biological replicate. Mean (solid line) and standard deviation (SD) from the mean (dashed lines) are indicated. Representative images are shown (bottom). Scale bar: 10 μm. This experiment was repeated three times. B QIBC analysis of endogenous FANCD2 foci in U2OS^eGFP-FAN1 cells transfected with either non-targeting (Ctrl) or the indicated siRNA oligos. 24 h later, cells were either mock-treated (−) or treated (+) with MMC (150 ng/ml) for 24 h. Color-coded scatterplots (from grey to blue) indicate the number of FANCD2 foci per nucleus from one biological replicate. Mean (solid line) and standard deviation (SD) from the mean (dashed lines) are indicated. […] 24 h later, cells were either mock-treated (−) or treated (+) with MMC (1 μg/ml) for 48 h and whole-cell lysates were analysed by immunoblotting. […] Relative FAN1, cleaved PARP-1 or cleaved Caspase-3 protein levels were determined by quantification of the respective band intensity (normalized to GAPDH) with the ImageJ software. […]

[3] = test system: HeLa cells; assay: clonogenic survival assay, HeLa parental; settings: MMC 10, 20, and 40 ng/ml, 24 h, n=4
Method: (§2) HeLa and RPE-1 p53 KO cells were transfected with the indicated siRNA. The next day, the cells were seeded in six-well plates. The next day, the cells were treated with MMC for 24 h. Plates were then washed twice with 2 ml of PBS before adding fresh growth medium to the cells, that were then cultured for 13 days at 37 °C before fixation with crystal violet solution [0.5% crystal violet and 20% ethanol (w/v)]. For analysis, plates were scanned and analysed with the ImageJ Plugin ColonyArea using the parameter “intensity percent”. […]
(§3) the mean (dashed lines) are indicated. Representative images are shown (bottom). Scale bar: 10 μm. […]
(§4) Western blot analysis of HeLa cells depleted of the indicated factors. (E) Clonogenic survival assay of the HeLa cells depleted of the indicated factors (Ctrl: black circle; FANCD2: red square; USP7#1: inverted blue triangle; USP7#2: cyan triangle; RAD18: brown diamond) and exposed to increasing doses of MMC for 24 h. Viability of untreated cells was defined as 100%. Data are presented as the means ± SD of four biological replicates (n=4). Representative images are shown (left). (F) Western blot analysis of HeLa and HeLa FAN1 KO cells depleted of the indicated factors. […]

[4] = test system: HeLa FAN1 KO cells; assay: clonogenic survival assay, HeLa FAN1 KO; settings: MMC 10, 20, and 40 ng/ml, 24 h, n=3
Method: as §2, §3, §4

[5] = test system: FAN1 protein level; assay: immunoblot of FAN1 levels after MMC, HeLa; settings: MMC 1 μg/ml, 48 h
Method: as §1

For CO[C@@]12[C@H](COC(N)=O)C3=C(C(=O)C(C)=C(N)C3=O)N1C[C@@H]1N[C@@H]12 [MMC, Mitomycin C], the “MMC sensitivity, FAN1/USP7 co-depletion” value [1] was “did not enhance sensitivity beyond individual knock-down of FAN1”, the “MMC sensitivity, FANCD2-depleted” value [1] was “strongest MMC sensitivity” and the “apoptosis (cleavage of PARP-1 and caspase-3)” value ([2]; HeLa FAN1 KO cells depleted of USP7, MMC 1 µg/ml) was “further amplified”. For the same molecule, the “apoptosis (cleavage of PARP-1 and caspase-3)” value ([2]; HeLa, USP7 depletion or FAN1 loss, MMC 1 µg/ml) was “increased apoptosis”, the “MMC sensitivity, RAD18 or FANCD2 depletion” value [3] was “more pronounced effects” and the “MMC sensitivity, USP7 depletion” value ([3]; two independent USP7 siRNA) was “only a modest increase MMC sensitivity”. For the same molecule, the “MMC sensitivity, RAD18 or FANCD2 depletion” value [4] was “additive increase in sensitivity”, the “MMC sensitivity, USP7 depletion” value [4] was “did not exacerbate MMC hypersensitivity” and the “FAN1 levels in response to MMC” value [5] was “upregulated”. For the same molecule, the “MMC-induced FAN1 upregulation with USP7 depletion” value ([5]; USP7 siRNA) was “abrogated by USP7 depletion”.
